Results as given in patent publication US7863235B2, “Method of activating α-amylase with oxidizing agents” (Kao Corporation, priority 2004, dated 2011).

Tested on: Duramyl 60T (α-amylase)
Experiment: Activation of Duramyl 60T by types of oxidizing agents (phadebas method)
Format: biochemical
Conditions: activity of Duramyl 60T (a1) after contact with oxidizing agent powder (b2), ratio 10/1; 25° C., 8 g/m^3, 30 minutes
Protocol: One tablet from Neo, Amylase Test “Daiichi” (product number: 701501-005, available from Daiichi Pure Chemicals Co., Ltd.) was added to 5 mL buffer (Britton-Robinson's Buffer, pH 8.5, 50 mM (Koichi Anan et al., Fundamental Biochemical Experimental Method 6 [in Japanese], p. 277, Maruzen Co., Ltd.)) and stirred for about 10 seconds, then 1 mL enzyme solution diluted with 2 mM aqueous calcium chloride was added, and the mixture was reacted at 50° C. for 15 minutes. 1 mL of 0.5 N aqueous sodium hydroxide was added to the solution under stirring to terminate the reaction, and then the reaction solution was centrifuged (400×g, 5 minutes) to precipitate insoluble components, and the supernatant thus obtained by centrifugation was measured for absorbance at 620 nm.
One tablet from Neo, Amylase Test “Daiichi” was added to 5 mL buffer (Britton-Robinson's Buffer, pH 8.5, 50 mM (Koichi Anan et al., Fundamental Biochemical Experimental Method 6 [in Japanese], p. 277, Maruzen Co., Ltd.)) and stirred for about 10 seconds. […] The supernatant thus obtained by centrifugation was measured for absorbance at 620 nm.
The activity of amylase was calculated from the difference in absorbance between (1) and (2) in a calibration curve as a standard of an International Unit sample enclosed with Neo, Amylase Test “Daiichi”. […]

O.O.O.O.O=BO[O-].[Na+] [Sodium perborate•4H2O, sodium perborate.4H2O]
Relative activity (%): 140%

O.[Na+].[O-][Cl+3]([O-])([O-])[O-] [Sodium perchlorate•1H2O, sodium perchlorate.1H2O]
Relative activity (%): 120%
